Results: US20230293519A1, “INTEGRIN INHIBITORS AND USES THEREOF IN COMBINATION WITH OTHER AGENTS” (Pliant Therapeutics, Inc., priority 2021, published 2023)
Entries after “also recorded” stand apart in the source; their conditions may differ.

Tests used:
lung Col1a1 expression = assay: Precision cut lung slices of mice under chronic bleomycin exposure (vs pirfenidone and nintedanib); type: cell-based, mouse; conditions: slices cultured 7 days; nintedanib and pirfenidone at 10x therapeutic concentrations
Protocol: Mice (C57BL/6) were administered 3 U/kg of bleomycin (Teva Pharmaceuticals; North Wales, PA) on Day 0 and 1 U/kg of bleomycin on days 14, 28, 42 and 56 via oropharyngeal aspiration while under anesthesia. At day 70, 14 days following the final bleomycin insult, precision cut lung slices were obtained. Following euthanization, 2% low gelling temp agarose was injected into the mouse lungs via the trachea. […] The lobes were then subjected to precision slicing to obtain samples for culture using a microtome (Compresstome VF-300-0Z, Precisionary; Greenville, NC). Individual slices were distributed in a multiwell culture plate and cultured for 7 days under control (DMSO) and test compound conditions. The viability of the slices over the course of culturing was confirmed by WST-1 assay of mitochondrial activity.
During the culture period, slices in the control group were treated with DMSO and slices in the test group were treated with a DMSO solution of one of: compound 5; nintedanib; pirfenidone; a combination of nintedanib and compound 5; a combination of pirfenidone and compound 5; or the small molecule ALK5 inhibitor. Compound 5 was […] effective to equal or exceed its respective IC50 values at αvβ6 and αvβ1. The small molecule ALK5 inhibitor was analyzed at 10x its reported IC50 value. Nintendanib and pirfenidone were analyzed at concentrations 10x their reported therapeutic concentrations.

[1] = system: bleomycin-treated mice (C57BL/6); assay: Murine bleomycin model: collagen deposition; type: in vivo, mouse
Protocol: Mice (C57BL/6) were divided into healthy (n=15), vehicle-treated (n=15), and test article-treated (n=15 per dose) groups. Mice in the vehicle and test article-treated groups were administered 3 U/kg of bleomycin (Teva Pharmaceuticals; North Wales, PA) via oropharyngeal aspiration while under anesthesia on day 0. Healthy animals were administered water in a similar fashion. Starting on day 7, mice in the control group were administered PBS vehicle, 130 uL, by oral gavage, BID for 14 days. Also starting on day 7, mice in the test group were administered compound 5 in PBS by oral gavage, BID for 14 days, at relative dosages of 1x, 2.5x and 5x. […] From day 14 through day 21, 9 of the 15 mice were administered ^2H2O for labeling. All mice were sacrificed on day 21 and tissues were collected. Samples were prepared for analysis either directly from lung tissue, or by bronchoalveolar lavage, which washes out the bronchiolar and alveolar space with saline to produce a bronchoalveolar lavage fluid (BALF) in which 80-90% of cells are alveolar macrophages.
FIG. 4C is a graph showing that compared to the healthy mice, lung tissue in the vehicle-treated mice experienced a substantial increase in SMAD3 phosphorylation, which is a measure of TGF-β signaling-related kinase activity. […] FIG. 4D is a graph showing that compared to the healthy mice, lung tissue in the vehicle-treated mice experienced a substantial accumulation of new collagen as evidenced by the percentage of lung collagen containing ^2H-labeled hydroxyproline.
FIGS. 4F, 4G, and 4H show high resolution second harmonic generation images of fibrillar collagen (collagen type I and III) taken from formalin-fixed paraffin embedded lung tissue sections from a healthy mouse lung (4F), a vehicle-treated mouse lung (4G) and a test-article treated mouse lung (4H; 500 mg/kg BID). Color scale is indicative of collagen fiber density (red = most dense; blue = least dense).
FIG. 4I is a graph showing the percent total collagen area in the second harmonic generation mouse lung images. […]

[2] = Phase 2a trial in IPF: pharmacokinetics; type: in vivo, human; conditions: IPF participants
Source text: Based on sparse sampling, overall Compound 5 pharmacokinetics and % unbound in IPF were consistent with that of previous studies. […] Overall % unbound was ~0.3 to 0.5%. Full PK curve will be predicted using population PK model to project AUC0_24 and Cmax.

[3] = system: Type I Collagen gene Col1a1 expression; assay: Precision cut lung slices of mice under acute bleomycin exposure; type: cell-based, mouse; conditions: slices cultured 3 days; integrin inhibitors at IC50, pan-αv and ALK5 inhibitors at 10x IC50
Protocol: Mice (C57BL/6) were administered 3 U/kg of bleomycin (Teva Pharmaceuticals; North Wales, PA) on day 0 via oropharyngeal aspiration while under anesthesia. On day 14, precision cut lung slices were obtained. Following euthanization, 2% low gelling temp agarose was injected into the mouse lungs via the trachea. […] The lobes were then subjected to precision slicing to obtain samples for culture using a microtome (Compresstome VF-300-0Z, Precisionary; Greenville, NC). Individual slices were distributed in a multiwell culture plate and cultured for 3 days under control (DMSO) and test compound conditions.

## COCCN(CCCCc1ccc2c(n1)NCCC2)CC[C@H](Nc1ncnc2ccccc12)C(=O)O [Compound 5, (S)-4-((2-methoxyethyl)(4-(5,6,7,8-tetrahydro-1,8-naphthyridin-2-yl)butyl)amino)-2-(quinazolin-4-ylamino)butanoic acid]
Lung Col1a1 expression
  lung Col1a1 expression vs DMSO control: substantial, statistically significant
[1]; 1x and 5x dose PO BID 14 days
  accumulated new collagen (% of lung collagen containing 2H-labeled hydroxyproline): dose-dependent reduction
[1]; 1x, 2.5x, 5x dose
  percent total collagen area in second harmonic generation lung images: substantial, statistically significant dose-dependent reduction
[1]; 1x, 2.5x, 5x dose PO BID 14 days
  total pulmonary collagen (µg of hydroxyproline): reduction in total pulmonary collagen
[2]; 40, 80, 160 mg once daily
  dose proportionality of plasma concentrations: generally dose proportional increases; also recorded: increased approximately proportionally with dose
[2]; human, in vivo
  fraction unbound: 0.003 to 0.005
[3]
  Type I Collagen gene Col1a1 expression vs DMSO control: decreased Type I Collagen gene Col1a1 expression substantially
